This assay has as its system female NOD mice. Kind of assay: Diabetes prevention/delayed onset study, fasting blood glucose. Type of assay: in vivo. An excerpt:
Normally, ninety to one hundred percent of female NOD mice, available, for example, from Jackson Laboratory, develop diabetes by 30 weeks of age. Two treatments were designed to study delaying the onset of diabetes and diabetes intervention in NOD mice. The first examined therapies in NOD mice beginning at 8 weeks of age to delay the onset of diabetes onset.
In the diabetes prevention/delayed onset study, mice were divided into five groups. […] Group 3 received 0.4 units insulin subcutaneously just prior to consuming food.
Female NOD mice (Jackson Laboratory) were allowed to access food ad lib overnight. A 12 hour light-dark cycle was maintained and mice were housed in accordance with the NIH Animal Care and Use guidelines. Food was removed for eight hours during the day and the fasting blood glucose was tested daily at the end of the eight hour fast.
The control group received vegetable oil to the fur without anything else. […] The insulin only group was given 0.4 units insulin (SQ) just before feeding.
Diabetes was defined as a fasting blood glucose ≧200 mg/dl on three consecutive days. The average of the fasting blood glucose over the three days was included in the calculation of the average for each group in the prevention data (see Table 1 and FIG. 1).

Where [1] appears, read: 24 weeks of age, treatment just before feeding.

“Also recorded” adds a separate entry of the source.

For `NCCCC(=O)O` [GABA, γ-aminobutyric acid], the “Average Fasting Blood Glucose” value was determined as 86 mg/dL (13 weeks of age, Group 5 fasting GABA, 30 mg/kg 2 hours before feeding); 80 mg/dL (13 weeks of age, treatment just before feeding (30 mg/kg GABA PO and/or 0.4 U insulin SQ)); 97 mg/dL (15 weeks of age, Group 5 fasting GABA, 30 mg/kg 2 hours before feeding); 100 mg/dL (17 weeks of age, Group 5 fasting GABA, 30 mg/kg 2 hours before feeding); 172 mg/dL (19 weeks of age, Group 5 fasting GABA, 30 mg/kg 2 hours before feeding); 127 mg/dL (19 weeks of age, treatment just before feeding). In addition, the “Average Fasting Blood Glucose” value by setting is: (21 weeks of age, Group 5 fasting GABA, 30 mg/kg 2 hours before feeding) 239 mg/dL; (21 weeks of age, treatment just before feeding) 138 mg/dL; (22 weeks of age, Group 5 fasting GABA, 30 mg/kg 2 hours before feeding) 266 mg/dL; (22 weeks of age, treatment just before feeding) 173 mg/dL; (24 weeks of age, Group 5 fasting GABA, 30 mg/kg 2 hours before feeding) 265 mg/dL; under setting [1], 152 mg/dL. The “Average Fasting Blood Glucose” value is, setting by setting: (26 weeks of age, Group 5 fasting GABA, 30 mg/kg 2 hours before feeding) 226 mg/dL; (26 weeks of age, treatment just before feeding) 253 mg/dL. Also, the “mice alive and diabetes free” value (22 weeks of age, Group 2, 30 mg/kg GABA PO just before feeding (4/4 mice)) is 100%. Also, under “22 weeks of age, Group 5, 30 mg/kg GABA under fasting conditions”, the “mice that became diabetic” value is reported as 50%. Further, under setting [1], the “average fasting blood glucose compared with other treatment groups” value is on record as “significantly lower”. Also, the “average fasting blood glucose compared with other groups” value (24 weeks, Group 5, 30 mg/kg GABA under fasting conditions) is on record as “significantly higher”. Further, the “prevention / delay of diabetes onset” value (Group 2, 30 mg/kg GABA just before feeding) is recorded as “delayed the longest; also recorded: most successful prevention treatment”. Moreover, the “effectiveness of prevention treatment” value (Group 5, 30 mg/kg GABA under fasting conditions, vs GABA just before feeding) is “less effective”.

For the origin of these results see patent US20130252886A1, “METHODS OF DELAYING AND TREATING DIABETES” (priority 2010, published 2013).
